What was measured:
[1] = system: Receptor-type tyrosine-protein kinase FLT3 (Homo sapiens), P36888 [UNDEFINED MUTATION]; conditions: Compound concentration 1000.0 nM
[2] = molecular target: Mitogen-activated protein kinase kinase kinase 20 (Homo sapiens) (UniProt Q9NYL2); conditions: Compound concentration 1000.0 nM
[3] = molecular target: Cyclin-dependent kinase-like 3 (Homo sapiens) (UniProt Q8IVW4); conditions: Compound concentration 1000.0 nM
[4] = molecular target: Serine/threonine-protein kinase Nek7 (Homo sapiens) (UniProt Q8TDX7); conditions: Compound concentration 1000.0 nM
[5] = molecular target: Calcium/calmodulin-dependent protein kinase type 1B (Homo sapiens) (UniProt Q6P2M8); conditions: Compound concentration 1000.0 nM
[6] = molecular target: Homeodomain-interacting protein kinase 1 (Homo sapiens) (UniProt Q86Z02); conditions: Compound concentration 1000.0 nM
[7] = molecular target: Phosphatidylinositol 4,5-bisphosphate 3-kinase catalytic subunit delta isoform (Homo sapiens) (UniProt O00329); conditions: Compound concentration 1000.0 nM
[8] = molecular target: Serine/threonine-protein kinase Sgk1 (Homo sapiens) (UniProt O00141); conditions: Compound concentration 1000.0 nM
[9] = molecular target: Death-associated protein kinase 1 (Homo sapiens) (UniProt P53355); conditions: Compound concentration 1000.0 nM
[10] = molecular target: Cyclin-dependent kinase 9 (Homo sapiens) (UniProt P50750); conditions: Compound concentration 1000.0 nM
[11] = molecular target: Ephrin type-A receptor 7 (Homo sapiens) (UniProt Q15375); conditions: Compound concentration 1000.0 nM
[12] = molecular target: Mitogen-activated protein kinase 10 (Homo sapiens) (UniProt P53779); conditions: Compound concentration 1000.0 nM
[13] = molecular target: Phosphatidylinositol 4-kinase beta (Homo sapiens) (UniProt Q9UBF8); conditions: Compound concentration 1000.0 nM
[14] = molecular target: Serine/threonine-protein kinase WNK1 (Homo sapiens) (UniProt Q9H4A3); conditions: Compound concentration 1000.0 nM
[15] = molecular target: Leucine-rich repeat serine/threonine-protein kinase 2 (Homo sapiens) (UniProt Q5S007); conditions: Compound concentration 1000.0 nM
[16] = molecular target: Tyrosine-protein kinase FRK (Homo sapiens) (UniProt P42685); conditions: Compound concentration 1000.0 nM
[17] = molecular target: Serine/threonine-protein kinase SIK2 (Homo sapiens) (UniProt Q9H0K1); conditions: Compound concentration 1000.0 nM
[18] = molecular target: Phosphorylase b kinase regulatory subunit alpha, liver isoform (Homo sapiens) (UniProt P46019); conditions: Compound concentration 1000.0 nM
[19] = molecular target: Serine/threonine-protein kinase PknB (Mycobacterium tuberculosis) (UniProt P9WI81); conditions: Compound concentration 1000.0 nM
[20] = molecular target: Delta-type opioid receptor (Homo sapiens, UniProt P41143); conditions: Compound concentration 10.0 uM
[21] = molecular target: Casein kinase II subunit alpha (Homo sapiens) (UniProt P68400); conditions: Compound concentration 1000.0 nM
[22] = molecular target: Serine/threonine-protein kinase SIK1 (Homo sapiens) (UniProt P57059); conditions: Compound concentration 1000.0 nM
[23] = molecular target: Activin receptor type-2B (Homo sapiens) (UniProt Q13705); conditions: Compound concentration 1000.0 nM
[24] = molecular target: NUAK family SNF1-like kinase 1 (Homo sapiens) (UniProt O60285); conditions: Compound concentration 1000.0 nM
[25] = molecular target: Mitogen-activated protein kinase kinase kinase 2 (Homo sapiens) (UniProt Q9Y2U5); conditions: Compound concentration 1000.0 nM
[26] = molecular target: NUAK family SNF1-like kinase 2 (Homo sapiens) (UniProt Q9H093); conditions: Compound concentration 1000.0 nM
[27] = molecular target: Mitogen-activated protein kinase 1 (Homo sapiens) (UniProt P28482); conditions: Compound concentration 1000.0 nM
[28] = molecular target: Mitogen-activated protein kinase kinase kinase 3 (Homo sapiens) (UniProt Q99759); conditions: Compound concentration 1000.0 nM
[29] = molecular target: Serine/threonine-protein kinase 4 (Homo sapiens) (UniProt Q13043); conditions: Compound concentration 1000.0 nM
[30] = molecular target: Macrophage colony-stimulating factor 1 receptor (Homo sapiens) (UniProt P07333); conditions: Compound concentration 1000.0 nM
[31] = molecular target: Alpha-2B adrenergic receptor (Homo sapiens) (UniProt P18089); conditions: Compound concentration 10.0 uM
[32] = molecular target: Muscarinic acetylcholine receptor M1 (Homo sapiens) (UniProt P11229); conditions: Compound concentration 10.0 uM
[33] = molecular target: Casein kinase I isoform gamma-3 (Homo sapiens) (UniProt Q9Y6M4); conditions: Compound concentration 1000.0 nM
[34] = molecular target: D(1A) dopamine receptor (Homo sapiens) (UniProt P21728); conditions: Compound concentration 10.0 uM
[35] = system: Mast/stem cell growth factor receptor Kit (Homo sapiens), P10721 [A829P]; conditions: Compound concentration 1000.0 nM
[36] = molecular target: Casein kinase I isoform epsilon (Homo sapiens) (UniProt P49674); conditions: Compound concentration 1000.0 nM
[37] = system: eIF-2-alpha kinase GCN2 (Homo sapiens), Q9P2K8 [S808G]; conditions: Compound concentration 1000.0 nM
[38] = molecular target: Activin receptor type-1B (Homo sapiens) (UniProt P36896); conditions: Compound concentration 1000.0 nM
[39] = molecular target: Atypical kinase COQ8B, mitochondrial (Homo sapiens) (UniProt Q96D53); conditions: Compound concentration 1000.0 nM
[40] = molecular target: Ribosomal protein S6 kinase alpha-3 (Homo sapiens) (UniProt P51812); conditions: Compound concentration 1000.0 nM
[41] = molecular target: LIM domain kinase 1 (Homo sapiens) (UniProt P53667); conditions: Compound concentration 1000.0 nM
[42] = molecular target: Dual specificity tyrosine-phosphorylation-regulated kinase 2 (Homo sapiens) (UniProt Q92630); conditions: Compound concentration 1000.0 nM
[43] = molecular target: Serine/threonine-protein kinase BRSK1 (Homo sapiens) (UniProt Q8TDC3); conditions: Compound concentration 1000.0 nM
[44] = molecular target: Ephrin type-A receptor 3 (Homo sapiens) (UniProt P29320); conditions: Compound concentration 1000.0 nM
[45] = molecular target: Inhibitor of nuclear factor kappa-B kinase subunit alpha (Homo sapiens) (UniProt O15111); conditions: Compound concentration 1000.0 nM

Sequence of Activin receptor type-1B (Homo sapiens) (P36896 whole entry): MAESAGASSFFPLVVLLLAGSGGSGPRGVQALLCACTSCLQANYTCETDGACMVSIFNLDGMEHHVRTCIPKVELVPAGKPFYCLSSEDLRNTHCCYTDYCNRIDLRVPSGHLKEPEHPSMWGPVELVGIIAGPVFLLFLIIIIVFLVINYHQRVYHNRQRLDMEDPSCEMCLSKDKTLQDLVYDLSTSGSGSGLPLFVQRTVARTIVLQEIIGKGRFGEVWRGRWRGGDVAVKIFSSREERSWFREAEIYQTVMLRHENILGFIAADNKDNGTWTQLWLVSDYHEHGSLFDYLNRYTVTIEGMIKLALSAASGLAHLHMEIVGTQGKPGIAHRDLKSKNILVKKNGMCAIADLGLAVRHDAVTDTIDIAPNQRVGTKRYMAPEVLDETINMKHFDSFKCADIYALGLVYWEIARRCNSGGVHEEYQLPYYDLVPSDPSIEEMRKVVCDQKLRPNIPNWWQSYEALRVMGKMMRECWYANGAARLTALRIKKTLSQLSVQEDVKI
Sequence of Ephrin type-A receptor 3 (Homo sapiens) (P29320 whole entry): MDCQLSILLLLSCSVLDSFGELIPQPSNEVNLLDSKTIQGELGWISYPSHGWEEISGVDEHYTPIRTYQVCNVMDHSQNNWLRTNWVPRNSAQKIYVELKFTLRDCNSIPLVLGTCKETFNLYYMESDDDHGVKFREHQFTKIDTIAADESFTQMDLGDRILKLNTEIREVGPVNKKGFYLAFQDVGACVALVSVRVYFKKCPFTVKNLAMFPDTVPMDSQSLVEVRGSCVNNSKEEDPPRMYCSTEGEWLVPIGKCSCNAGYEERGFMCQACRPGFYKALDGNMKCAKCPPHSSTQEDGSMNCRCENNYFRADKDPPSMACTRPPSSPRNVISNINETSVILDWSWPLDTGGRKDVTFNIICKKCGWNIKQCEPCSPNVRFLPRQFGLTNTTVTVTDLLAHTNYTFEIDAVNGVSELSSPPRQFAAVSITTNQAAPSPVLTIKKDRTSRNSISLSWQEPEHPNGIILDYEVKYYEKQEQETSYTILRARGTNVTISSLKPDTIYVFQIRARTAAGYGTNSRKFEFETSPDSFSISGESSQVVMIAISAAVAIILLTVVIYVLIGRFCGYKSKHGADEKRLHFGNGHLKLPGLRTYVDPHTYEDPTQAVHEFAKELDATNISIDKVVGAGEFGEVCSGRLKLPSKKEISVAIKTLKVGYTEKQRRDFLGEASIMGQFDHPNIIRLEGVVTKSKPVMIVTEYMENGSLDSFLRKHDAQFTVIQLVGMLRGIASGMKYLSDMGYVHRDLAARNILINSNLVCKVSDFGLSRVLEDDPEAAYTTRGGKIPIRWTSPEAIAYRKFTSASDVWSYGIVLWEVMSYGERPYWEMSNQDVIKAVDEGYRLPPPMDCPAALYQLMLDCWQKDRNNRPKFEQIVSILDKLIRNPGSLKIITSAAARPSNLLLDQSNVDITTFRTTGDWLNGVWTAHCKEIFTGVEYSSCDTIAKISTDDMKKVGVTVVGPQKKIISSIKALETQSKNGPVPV
Sequence of Mitogen-activated protein kinase 1 (Homo sapiens) (P28482 whole entry): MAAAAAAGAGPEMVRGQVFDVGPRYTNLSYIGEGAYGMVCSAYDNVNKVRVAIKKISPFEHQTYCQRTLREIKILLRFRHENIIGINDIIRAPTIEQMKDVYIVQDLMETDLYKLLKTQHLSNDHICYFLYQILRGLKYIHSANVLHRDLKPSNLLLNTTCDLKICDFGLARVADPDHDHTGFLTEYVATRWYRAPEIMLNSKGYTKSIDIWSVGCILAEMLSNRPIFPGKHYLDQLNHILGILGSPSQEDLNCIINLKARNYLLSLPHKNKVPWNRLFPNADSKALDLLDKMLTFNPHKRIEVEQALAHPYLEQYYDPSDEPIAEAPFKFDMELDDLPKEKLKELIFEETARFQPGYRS
Sequence of Casein kinase I isoform epsilon (Homo sapiens) (P49674 whole entry, looked up, canonical isoform): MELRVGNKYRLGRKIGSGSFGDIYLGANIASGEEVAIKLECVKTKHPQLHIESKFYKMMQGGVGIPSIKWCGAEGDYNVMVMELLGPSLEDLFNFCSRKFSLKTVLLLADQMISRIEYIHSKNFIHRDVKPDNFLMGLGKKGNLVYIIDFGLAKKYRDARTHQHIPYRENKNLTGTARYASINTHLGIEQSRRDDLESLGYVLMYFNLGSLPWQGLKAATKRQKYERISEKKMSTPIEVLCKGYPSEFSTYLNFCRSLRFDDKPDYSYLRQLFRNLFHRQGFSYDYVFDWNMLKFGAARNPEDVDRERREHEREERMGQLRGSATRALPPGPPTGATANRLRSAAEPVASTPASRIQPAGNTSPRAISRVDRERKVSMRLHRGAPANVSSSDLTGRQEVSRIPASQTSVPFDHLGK
Sequence of Muscarinic acetylcholine receptor M1 (Homo sapiens) (P11229 whole entry, canonical isoform): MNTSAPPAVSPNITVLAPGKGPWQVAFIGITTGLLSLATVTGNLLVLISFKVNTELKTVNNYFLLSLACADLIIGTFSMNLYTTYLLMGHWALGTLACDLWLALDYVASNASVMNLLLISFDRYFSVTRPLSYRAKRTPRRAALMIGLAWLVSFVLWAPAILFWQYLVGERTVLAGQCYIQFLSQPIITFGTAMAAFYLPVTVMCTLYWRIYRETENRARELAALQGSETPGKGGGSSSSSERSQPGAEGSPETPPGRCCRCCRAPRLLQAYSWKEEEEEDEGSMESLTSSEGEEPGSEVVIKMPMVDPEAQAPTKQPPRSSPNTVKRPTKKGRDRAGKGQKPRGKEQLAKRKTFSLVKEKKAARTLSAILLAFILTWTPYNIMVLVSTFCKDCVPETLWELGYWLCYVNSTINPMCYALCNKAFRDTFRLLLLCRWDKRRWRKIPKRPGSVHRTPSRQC
Sequence of Death-associated protein kinase 1 (Homo sapiens) (P53355 whole entry, looked up): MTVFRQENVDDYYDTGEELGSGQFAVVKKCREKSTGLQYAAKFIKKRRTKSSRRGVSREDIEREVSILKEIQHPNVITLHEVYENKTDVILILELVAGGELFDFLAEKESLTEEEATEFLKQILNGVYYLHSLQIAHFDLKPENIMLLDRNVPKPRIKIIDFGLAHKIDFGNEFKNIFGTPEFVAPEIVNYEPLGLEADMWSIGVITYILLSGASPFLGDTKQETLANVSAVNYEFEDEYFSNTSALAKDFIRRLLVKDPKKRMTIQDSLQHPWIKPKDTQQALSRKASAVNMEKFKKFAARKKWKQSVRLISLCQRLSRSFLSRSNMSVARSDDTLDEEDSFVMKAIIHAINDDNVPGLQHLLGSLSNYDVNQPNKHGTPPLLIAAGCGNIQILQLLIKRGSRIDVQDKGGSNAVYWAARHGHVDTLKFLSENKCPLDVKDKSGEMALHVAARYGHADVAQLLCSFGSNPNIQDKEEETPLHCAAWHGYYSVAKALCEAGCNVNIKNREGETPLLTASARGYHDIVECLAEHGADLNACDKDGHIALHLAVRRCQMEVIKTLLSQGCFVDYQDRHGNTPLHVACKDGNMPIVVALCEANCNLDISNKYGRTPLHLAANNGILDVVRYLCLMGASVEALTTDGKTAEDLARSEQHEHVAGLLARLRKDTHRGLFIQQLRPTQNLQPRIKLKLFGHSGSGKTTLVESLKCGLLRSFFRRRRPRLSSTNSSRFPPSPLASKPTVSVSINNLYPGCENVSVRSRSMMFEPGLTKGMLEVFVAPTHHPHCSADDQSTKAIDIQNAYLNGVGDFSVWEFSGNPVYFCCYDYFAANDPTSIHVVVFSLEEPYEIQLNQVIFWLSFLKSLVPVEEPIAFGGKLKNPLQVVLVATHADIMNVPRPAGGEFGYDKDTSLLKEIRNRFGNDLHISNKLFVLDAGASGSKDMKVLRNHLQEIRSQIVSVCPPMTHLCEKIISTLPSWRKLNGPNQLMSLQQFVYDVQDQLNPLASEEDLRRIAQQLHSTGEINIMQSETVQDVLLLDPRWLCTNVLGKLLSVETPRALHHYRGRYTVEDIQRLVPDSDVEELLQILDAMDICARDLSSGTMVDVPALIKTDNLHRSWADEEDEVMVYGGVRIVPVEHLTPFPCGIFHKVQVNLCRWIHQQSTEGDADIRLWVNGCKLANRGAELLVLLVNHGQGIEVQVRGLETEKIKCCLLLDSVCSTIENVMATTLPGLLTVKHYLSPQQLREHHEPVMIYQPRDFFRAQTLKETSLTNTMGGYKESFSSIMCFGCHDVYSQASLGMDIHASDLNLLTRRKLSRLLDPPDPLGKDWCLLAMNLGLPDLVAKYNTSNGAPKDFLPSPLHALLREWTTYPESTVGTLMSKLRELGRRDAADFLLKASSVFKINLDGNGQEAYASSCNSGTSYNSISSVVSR
Sequence of Serine/threonine-protein kinase PknB (Mycobacterium tuberculosis) (P9WI81 whole entry): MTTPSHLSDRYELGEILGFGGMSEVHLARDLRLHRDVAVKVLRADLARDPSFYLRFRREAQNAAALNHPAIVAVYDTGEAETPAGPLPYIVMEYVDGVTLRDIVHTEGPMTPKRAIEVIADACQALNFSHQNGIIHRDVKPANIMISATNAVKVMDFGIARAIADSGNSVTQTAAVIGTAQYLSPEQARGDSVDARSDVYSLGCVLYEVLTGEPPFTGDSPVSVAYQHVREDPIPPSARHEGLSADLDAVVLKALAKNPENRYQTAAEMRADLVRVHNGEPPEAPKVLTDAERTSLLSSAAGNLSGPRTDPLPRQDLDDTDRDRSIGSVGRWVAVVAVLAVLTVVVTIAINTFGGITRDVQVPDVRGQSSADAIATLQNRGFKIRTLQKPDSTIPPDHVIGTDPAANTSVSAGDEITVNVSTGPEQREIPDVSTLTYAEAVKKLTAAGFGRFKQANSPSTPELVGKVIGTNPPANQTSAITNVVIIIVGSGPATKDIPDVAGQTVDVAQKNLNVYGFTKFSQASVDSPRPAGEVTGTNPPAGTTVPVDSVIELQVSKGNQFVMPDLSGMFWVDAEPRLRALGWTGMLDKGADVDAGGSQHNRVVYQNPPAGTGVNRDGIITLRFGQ

Compound `CC(=O)c1c(NS(C)(=O)=O)c2cc(-c3ccc(Cl)cc3)c(-c3ccc(Cl)cc3Cl)nc2n(C)c1=O` [MRL-CB1-NC] has a residual activity [1] of 94%, a residual activity [2] of 92% and a residual activity [3] of 100%. For the same compound, the residual activity [4] was 100%, the residual activity [5] was 100% and the residual activity [6] was 96%. The residual activity [7] was 100%, the residual activity [8] was 100% and the residual activity [9] was 80%. The residual activity [10] was 91%, the residual activity [11] was 100% and the residual activity [12] was 78%. For the same compound, the residual activity [13] was 74%, the residual activity [14] was 88% and the residual activity [15] was 65%. It also gave a residual activity [16] of 100%, a residual activity [17] of 100% and a residual activity [18] of 100%. It also gave a residual activity [19] of 83%, an inhibition [20] of 73.6% and a residual activity [21] of 92%. The residual activity [22] was 100%, the residual activity [23] was 100% and the residual activity [24] was 86%. The residual activity [25] was 93%, the residual activity [26] was 89% and the residual activity [27] was 100%. For the same compound, the residual activity [28] was 100%, the residual activity [29] was 100% and the residual activity [30] was 100%. It also gave an inhibition [31] of 67.2%, an inhibition [32] of 3.28% and a residual activity [33] of 100%. For the same compound, the inhibition [34] was 14.2%, the residual activity [35] was 96% and the residual activity [36] was 100%. For the same compound, the residual activity [37] was 100%, the residual activity [38] was 92% and the residual activity [39] was 97%. The residual activity [40] was 75%, the residual activity [41] was 88% and the residual activity [42] was 93%. For the same compound, the residual activity [43] was 99%, the residual activity [44] was 92% and the residual activity [45] was 100%.

With `CC(=O)Nc1c(C(C)=O)c(=O)n(C)c2nc(-c3ccc(Cl)cc3Cl)c(-c3ccc(Cl)cc3)cc12` [NAPHTHYRIDINONE] the residual activity [1] was 100%, the residual activity [2] was 100% and the residual activity [3] was 100%. The residual activity [4] was 100%, the residual activity [5] was 100% and the residual activity [6] was 99%. The residual activity [7] was 100%, the residual activity [8] was 100% and the residual activity [9] was 100%. It also gave a residual activity [10] of 100%, a residual activity [11] of 100% and a residual activity [12] of 100%. The residual activity [13] was 100%, the residual activity [14] was 100% and the residual activity [15] was 100%. The residual activity [16] was 100%, the residual activity [17] was 100% and the residual activity [18] was 100%. The residual activity [19] was 100%, the inhibition [20] was -2.35% and the residual activity [21] was 100%. The residual activity [22] was 100%, the residual activity [23] was 100% and the residual activity [24] was 100%. The residual activity [25] was 100%, the residual activity [26] was 100% and the residual activity [27] was 100%. For the same compound, the residual activity [28] was 100%, the residual activity [29] was 100% and the residual activity [30] was 100%. It also gave an inhibition [31] of 16.6%, an inhibition [32] of -3.7% and a residual activity [33] of 100%. The inhibition [34] was 2.02%, the residual activity [35] was 100% and the residual activity [36] was 100%. It also gave a residual activity [37] of 48%, a residual activity [38] of 94% and a residual activity [39] of 100%. The residual activity [40] was 90%, the residual activity [41] was 100% and the residual activity [42] was 100%. The residual activity [43] was 85%, the residual activity [44] was 100% and the residual activity [45] was 100%.
